Results taken from patent US8227502B2, “Amides acting on the adenosine receptors” (Anamar AB, priority 2006, dated 2012).

How the values were obtained:
adenosine A2A receptor = molecular target: T1, adenosine A2A receptor (Homo sapiens, UniProt P29274); experiment: Affinity for adenosine A2A receptor ([3H]CGS21680 binding, per Varani et al.)
T1 construct: from tissue
Excerpt: The affinity and functionality towards the adenosine A2A receptor was essentially performed as described by Varani et al. (Varani, Pharmacological and biochemical characterization of purified A2A adenosine receptors in human platelet membranes by [^3H]CGS21680 binding, Br. J. Pharmacol. 117:1693-1701, 1996), Table 1.

[1] = system: antigen induced arthritis; experiment: Antigen induced arthritis (AIA), knee joint swelling; type: in vivo; conditions: rat, per oral administration, FIG. 1
Excerpt: Antigen Induced Arthritis (AIA) in the rat is a well reproducible monoarthritis model. An intraarticular injection of the antigen methylated bovine serum albumin (mBSA) in the knee joint in sensitised animals induces an inflammatory response. The formation of pannus tissue, which invades the synovium, spreads over the articular cartilage and grows into the bone, leading to tissue erosion and remodeling.
AIA responds well to compounds used for standard clinical treatment of human arthritis. Therefore this model is appropriate for the evaluation of the effects of new compounds on joint inflammation and cartilage/bone degradation. The test compounds can be administered locally or systemically. The features of the arthritis can be followed and evaluated by measuring knee joint swelling, by functional scoring and histological analysis. Since it is a monoarthritis model, the level of inflammatory serum markers may be difficult to detect. The AIA model also serves as a source for the production of synoviocytes for in vitro culturing, in order to gain further insight in the synovial matrix composition and for drug screening purposes.
In Antigen induced arthritis—for the effect on knee diameter of Compound 1:16 after per oral administration—see FIG. 1.

T1 sequence (P29274 whole entry): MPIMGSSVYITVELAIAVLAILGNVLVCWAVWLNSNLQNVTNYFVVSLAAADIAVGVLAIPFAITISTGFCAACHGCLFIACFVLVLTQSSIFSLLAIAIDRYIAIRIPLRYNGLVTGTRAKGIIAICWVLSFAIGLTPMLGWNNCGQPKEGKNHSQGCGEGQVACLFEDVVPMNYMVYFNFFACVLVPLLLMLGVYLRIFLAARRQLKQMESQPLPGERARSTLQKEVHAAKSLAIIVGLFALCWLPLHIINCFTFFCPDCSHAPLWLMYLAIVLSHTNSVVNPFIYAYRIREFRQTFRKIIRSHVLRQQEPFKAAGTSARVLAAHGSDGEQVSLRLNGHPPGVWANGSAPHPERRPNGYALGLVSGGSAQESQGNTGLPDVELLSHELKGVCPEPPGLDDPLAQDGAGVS

IC50 (adenosine A2A receptor) [nM] | Ki (adenosine A2A receptor) [nM] | SMILES | swelling of the knee (knee diameter) [1]
2840 | 1600 | NCCC(=O)N(CCc1c[nH]c2ccccc12)C(C(=O)NC1CCCCC1)c1ccc(Br)cc1Br (centres unmarked) [1:04, 3-Amino-N-[cyclohexylcarbamoyl-(2,4-dibromo-phenyl)-methyl]-N-[2-(1H-indol-3-yl)-ethyl]-propionamide] | 
243 | 136 | NCCC(=O)N(CCc1c[nH]c2ccccc12)C(C(=O)Nc1ccccc1)c1ccc(Br)cc1 (centres unmarked) [1:15, 3-Amino-N-[(4-bromo-phenyl)-phenylcarbamoyl-methyl]-N-[2-(1H-indol-3-yl)-ethyl]-propionamide] | 
5110 | 2870 | NCCC(=O)N(CCc1c[nH]c2ccccc12)C(C(=O)NCc1ccccc1)c1ccc(Br)cc1Br (centres unmarked) [1:09, 3-Amino-N-[benzylcarbamoyl-(2,4-dibromo-phenyl)-methyl]-N-[2-(1H-indol-3-yl)-ethyl]-propionamide] | 
31.1 | 17.5 | NCCC(=O)N(CCc1c[nH]c2ccccc12)C(C(=O)Nc1ccccc1)c1ccc(Br)cc1Br (centres unmarked) [Compound 1:16, 3-Amino-N-[(2,4-dibromo-phenyl)-phenylcarbamoyl-methyl]-N-[2-(1H-indol-3-yl)-ethyl]-propionamide] | reduced the swelling of the knee
 | 60 | NCCC(=O)N(CCc1c[nH]c2ccccc12)C(C(=O)Nc1ccccc1)c1ccccc1Br (centres unmarked) [1:13, 3-Amino-N-[(2-bromo-phenyl)-phenylcarbamoyl-methyl]-N-[2-(1H-indol-3-yl)-ethyl]-propionamide] | 
 | 1000 | NCCC(=O)N(CCc1c[nH]c2ccccc12)C(C(=O)NC1CCCCC1)c1ccccc1Br (centres unmarked) [1:02, 3-Amino-N-[(2-bromo-phenyl)-cyclohexylcarbamoyl-methyl]-N-[2-(1H-indol-3-yl)-ethyl]-propionamide] | 
